Biological target: Sodium- and chloride-dependent glycine transporter 1 (Homo sapiens) (UniProt P48067)
Test: Radioligand Binding Assay: 1. [3H]-Glycine uptake into recombinant CHO cells expressing human GlyT1: Human GlyT1c expressing recombinant hGlyT1c_5_CHO cells were plated at 20,000 cells per well in 96 well Cytostar-T scintillation microplates (Amersham Biosciences) and cultured to sub-confluency for 24 h. For glycine uptake assays the culture medium was aspirated and the cells were washed once …

Sodium- and chloride-dependent glycine transporter 1 (Homo sapiens), sequence (P48067 whole entry, looked up): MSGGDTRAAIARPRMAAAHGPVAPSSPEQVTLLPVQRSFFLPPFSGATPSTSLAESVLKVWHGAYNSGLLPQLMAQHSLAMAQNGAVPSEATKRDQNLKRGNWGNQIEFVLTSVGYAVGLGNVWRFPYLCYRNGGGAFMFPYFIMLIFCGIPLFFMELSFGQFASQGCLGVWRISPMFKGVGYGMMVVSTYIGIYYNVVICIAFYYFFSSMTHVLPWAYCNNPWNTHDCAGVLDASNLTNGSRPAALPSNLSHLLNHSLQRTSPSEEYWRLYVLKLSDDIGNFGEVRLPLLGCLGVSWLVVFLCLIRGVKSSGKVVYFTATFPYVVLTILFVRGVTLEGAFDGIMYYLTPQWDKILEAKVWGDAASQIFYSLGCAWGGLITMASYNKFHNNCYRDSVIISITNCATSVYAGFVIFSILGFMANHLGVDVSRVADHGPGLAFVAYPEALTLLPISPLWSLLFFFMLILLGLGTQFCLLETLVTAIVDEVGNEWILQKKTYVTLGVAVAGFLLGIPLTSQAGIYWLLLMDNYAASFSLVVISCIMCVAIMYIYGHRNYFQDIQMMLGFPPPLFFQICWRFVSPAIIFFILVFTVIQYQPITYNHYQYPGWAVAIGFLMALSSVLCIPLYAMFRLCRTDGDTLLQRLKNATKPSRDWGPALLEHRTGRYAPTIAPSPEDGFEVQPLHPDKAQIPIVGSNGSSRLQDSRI

Ki: < 10 nM
SMILES: CNC1COc2ccc(N3CC(NS(=O)(=O)CC4CC4)C3)cc2C1Cc1ccccc1 (cis isomer)
